# PubChem BioAssay (NCI)
#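 96-well plates; 48 h exposure; 5 concentrations. Endpoints by linear interpolation between flanking doses. Not reached: highest tested concentration assigned. Here, GI50 denotes the concentration required for 50% inhibition of growth. TGI: concentration producing complete growth inhibition.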
# What was measured:
# Test in all cases: inhibition of tumour cell growth, NCI panel, 48 h
# T-47D breast = test system: T-47D breast
# NCI/ADR-RES ovarian = test system: NCI/ADR-RES ovarian
# BT-549 breast = test system: BT-549 breast
# UACC-62 melanoma = test system: UACC-62 melanoma
# MALME-3M melanoma = test system: MALME-3M melanoma
# ACHN renal = test system: ACHN renal
# COLO 205 colon = test system: COLO 205 colon
# SK-MEL-5 melanoma = test system: SK-MEL-5 melanoma
# DU-145 prostate = test system: DU-145 prostate
# RXF 393 renal = test system: RXF 393 renal
# HCC-2998 colon = test system: HCC-2998 colon
# CAKI-1 renal = test system: CAKI-1 renal
# NCI-H522 lung = test system: NCI-H522 lung
# PC-3 prostate = test system: PC-3 prostate
# HCT-15 colon = test system: HCT-15 colon
# 786-0 renal = test system: 786-0 renal
# IGROV1 ovarian = test system: IGROV1 ovarian
# A549 NSCLC = test system: A549 NSCLC
# EKVX NSCLC = test system: EKVX NSCLC
# A498 renal = test system: A498 renal
# HOP-92 NSCLC = test system: HOP-92 NSCLC
# HS 578T breast = test system: HS 578T breast
# NCI-H23 lung = test system: NCI-H23 lung
# SK-MEL-2 melanoma = test system: SK-MEL-2 melanoma
# RPMI-8226 leukemia = test system: RPMI-8226 leukemia
# MDA-MB-231 breast = test system: MDA-MB-231 breast
# OVCAR-3 ovarian = test system: OVCAR-3 ovarian
# SK-OV-3 ovarian = test system: SK-OV-3 ovarian
# KM12 colon = test system: KM12 colon
# NCI-H460 lung = test system: NCI-H460 lung
# MOLT-4 leukemia = test system: MOLT-4 leukemia
# MDA-MB-435 = test system: MDA-MB-435
# SF-268 CNS = test system: SF-268 CNS
# K-562 leukemia = test system: K-562 leukemia
# SK-MEL-28 melanoma = test system: SK-MEL-28 melanoma
# TK-10 renal = test system: TK-10 renal
# HCT-116 colon = test system: HCT-116 colon
# LOX IMVI melanoma = test system: LOX IMVI melanoma
# UACC-257 melanoma = test system: UACC-257 melanoma
# OVCAR-8 ovarian = test system: OVCAR-8 ovarian
# NCI-H226 lung = test system: NCI-H226 lung
# HOP-62 NSCLC = test system: HOP-62 NSCLC
# M14 melanoma = test system: M14 melanoma
# HT29 colon = test system: HT29 colon
# SF-295 CNS = test system: SF-295 CNS
# SNB-19 CNS = test system: SNB-19 CNS
# CCRF-CEM leukemia = test system: CCRF-CEM leukemia
# SW-620 colon = test system: SW-620 colon
# SN12C renal = test system: SN12C renal
# HL-60(TB) leukemia = test system: HL-60(TB) leukemia
# MCF7 breast = test system: MCF7 breast
# OVCAR-5 ovarian = test system: OVCAR-5 ovarian
# SF-539 CNS = test system: SF-539 CNS
# SNB-75 CNS = test system: SNB-75 CNS
# UO-31 renal = test system: UO-31 renal
# U251 CNS = test system: U251 CNS
smiles,measurement,setting,value
CCCc1cc2cc(-n3nc(CC)c4c3CC(C)(C)CC4=O)cc(NC3CCC(O)CC3)c2c(=O)[nH]1 (configuration not stated),GI50,T-47D breast,2060 nM
same,TGI,T-47D breast,> 100000 nM
same,GI50,NCI/ADR-RES ovarian,3880 nM
same,TGI,NCI/ADR-RES ovarian,> 100000 nM
same,GI50,BT-549 breast,2300 nM
same,TGI,BT-549 breast,> 100000 nM
same,GI50,UACC-62 melanoma,487 nM
same,TGI,UACC-62 melanoma,> 100000 nM
same,GI50,MALME-3M melanoma,839 nM
same,TGI,MALME-3M melanoma,> 100000 nM
same,GI50,ACHN renal,495 nM
same,TGI,ACHN renal,> 100000 nM
same,GI50,COLO 205 colon,464 nM
same,TGI,COLO 205 colon,> 100000 nM
same,GI50,SK-MEL-5 melanoma,1940 nM
same,TGI,SK-MEL-5 melanoma,> 100000 nM
same,GI50,DU-145 prostate,530 nM
same,TGI,DU-145 prostate,> 100000 nM
same,GI50,RXF 393 renal,408 nM
same,TGI,RXF 393 renal,2410 nM
same,GI50,HCC-2998 colon,842 nM
same,TGI,HCC-2998 colon,> 100000 nM
same,GI50,CAKI-1 renal,1130 nM
same,TGI,CAKI-1 renal,> 100000 nM
same,GI50,NCI-H522 lung,1010 nM
same,TGI,NCI-H522 lung,11500 nM
same,GI50,PC-3 prostate,1310 nM
same,TGI,PC-3 prostate,> 100000 nM
same,GI50,HCT-15 colon,400 nM
same,TGI,HCT-15 colon,> 100000 nM
same,GI50,786-0 renal,2950 nM
same,TGI,786-0 renal,> 100000 nM
same,GI50,IGROV1 ovarian,831 nM
same,TGI,IGROV1 ovarian,> 100000 nM
same,GI50,A549 NSCLC,1460 nM
same,TGI,A549 NSCLC,> 100000 nM
same,GI50,EKVX NSCLC,> 100000 nM
same,TGI,EKVX NSCLC,> 100000 nM
same,GI50,A498 renal,2020 nM
same,TGI,A498 renal,> 100000 nM
same,GI50,HOP-92 NSCLC,1710 nM
same,TGI,HOP-92 NSCLC,8600 nM
same,GI50,HS 578T breast,3490 nM
same,TGI,HS 578T breast,> 100000 nM
same,GI50,NCI-H23 lung,127 nM
same,TGI,NCI-H23 lung,50800 nM
same,GI50,SK-MEL-2 melanoma,2270 nM
same,TGI,SK-MEL-2 melanoma,> 100000 nM
same,GI50,RPMI-8226 leukemia,1580 nM
same,TGI,RPMI-8226 leukemia,> 100000 nM
same,GI50,MDA-MB-231 breast,652 nM
same,TGI,MDA-MB-231 breast,> 100000 nM
same,GI50,OVCAR-3 ovarian,4430 nM
same,TGI,OVCAR-3 ovarian,> 100000 nM
same,GI50,SK-OV-3 ovarian,409 nM
same,TGI,SK-OV-3 ovarian,> 100000 nM
same,GI50,KM12 colon,758 nM
same,TGI,KM12 colon,> 100000 nM
same,GI50,NCI-H460 lung,482 nM
same,TGI,NCI-H460 lung,> 100000 nM
same,GI50,MOLT-4 leukemia,503 nM
same,TGI,MOLT-4 leukemia,> 100000 nM
same,GI50,MDA-MB-435,444 nM
same,TGI,MDA-MB-435,> 100000 nM
same,GI50,SF-268 CNS,7290 nM
same,TGI,SF-268 CNS,> 100000 nM
same,GI50,K-562 leukemia,185 nM
same,TGI,K-562 leukemia,> 100000 nM
same,GI50,SK-MEL-28 melanoma,869 nM
same,TGI,SK-MEL-28 melanoma,> 100000 nM
same,GI50,TK-10 renal,621 nM
same,TGI,TK-10 renal,> 100000 nM
same,GI50,HCT-116 colon,193 nM
same,TGI,HCT-116 colon,> 100000 nM
same,GI50,LOX IMVI melanoma,198 nM
same,TGI,LOX IMVI melanoma,> 100000 nM
same,GI50,UACC-257 melanoma,3000 nM
same,TGI,UACC-257 melanoma,> 100000 nM
same,GI50,OVCAR-8 ovarian,2040 nM
same,TGI,OVCAR-8 ovarian,> 100000 nM
same,GI50,NCI-H226 lung,2620 nM
same,TGI,NCI-H226 lung,> 100000 nM
same,GI50,HOP-62 NSCLC,836 nM
same,TGI,HOP-62 NSCLC,> 100000 nM
same,GI50,M14 melanoma,572 nM
same,TGI,M14 melanoma,> 100000 nM
same,GI50,HT29 colon,100 nM
same,TGI,HT29 colon,> 100000 nM
same,GI50,SF-295 CNS,759 nM
same,TGI,SF-295 CNS,> 100000 nM
same,GI50,SNB-19 CNS,3020 nM
same,TGI,SNB-19 CNS,> 100000 nM
same,GI50,CCRF-CEM leukemia,1340 nM
same,TGI,CCRF-CEM leukemia,> 100000 nM
same,GI50,SW-620 colon,370 nM
same,TGI,SW-620 colon,> 100000 nM
same,GI50,SN12C renal,365 nM
same,TGI,SN12C renal,> 100000 nM
same,GI50,HL-60(TB) leukemia,315 nM
same,TGI,HL-60(TB) leukemia,> 100000 nM
same,GI50,MCF7 breast,289 nM
same,TGI,MCF7 breast,> 100000 nM
same,GI50,OVCAR-5 ovarian,3510 nM
same,TGI,OVCAR-5 ovarian,> 100000 nM
same,GI50,SF-539 CNS,1720 nM
same,TGI,SF-539 CNS,89300 nM
same,GI50,SNB-75 CNS,6220 nM
same,TGI,SNB-75 CNS,> 100000 nM
same,GI50,UO-31 renal,568 nM
same,TGI,UO-31 renal,> 100000 nM
same,GI50,U251 CNS,3370 nM
same,TGI,U251 CNS,> 100000 nM
